pIC50: −log10 of the molar value. Values after ≈ are worked out from the molar mass of the structure shown.
Key:
Bacteria [1] = test: Minimum inhibitory concentration for Gram-positive antibacterial activity by using standard MIC broth assay method; 4-8; format: functional
[2] = biological target: T1, KinA/Spo0F (sporulation kinase A/sporulation initiation phosphotransferase F) (Bacillus subtilis (strain 168), UniProt P06628+P16497); test: Ability to inhibit autophosphorylation of KinA/Sp0F assay; format: protein assay
T1 sequence (P06628 whole entry): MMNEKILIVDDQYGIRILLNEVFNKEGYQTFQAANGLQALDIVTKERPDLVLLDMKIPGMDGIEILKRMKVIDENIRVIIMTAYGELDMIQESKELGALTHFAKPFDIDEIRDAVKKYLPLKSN
T1 sequence (P16497 whole entry): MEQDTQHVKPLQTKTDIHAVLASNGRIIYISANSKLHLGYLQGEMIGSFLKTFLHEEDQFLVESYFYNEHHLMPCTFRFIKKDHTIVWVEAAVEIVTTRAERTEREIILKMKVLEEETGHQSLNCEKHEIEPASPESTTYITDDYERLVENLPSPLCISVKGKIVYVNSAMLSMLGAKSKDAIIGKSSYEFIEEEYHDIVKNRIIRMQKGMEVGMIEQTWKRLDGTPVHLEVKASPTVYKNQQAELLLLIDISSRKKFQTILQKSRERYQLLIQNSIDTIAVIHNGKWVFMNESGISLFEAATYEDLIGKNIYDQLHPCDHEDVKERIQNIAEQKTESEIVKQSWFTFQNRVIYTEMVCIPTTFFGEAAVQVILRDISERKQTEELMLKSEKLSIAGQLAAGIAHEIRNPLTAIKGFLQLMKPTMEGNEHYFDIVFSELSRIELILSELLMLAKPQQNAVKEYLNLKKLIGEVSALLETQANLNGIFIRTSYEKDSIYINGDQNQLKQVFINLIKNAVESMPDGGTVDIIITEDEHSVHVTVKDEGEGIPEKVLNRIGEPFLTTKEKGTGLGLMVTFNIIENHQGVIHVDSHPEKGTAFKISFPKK

Bacteria [3] = test: Minimum inhibitory concentration for Gram-positive antibacterial activity by using standard MIC broth assay method; format: functional
Bacteria [4] = test: Minimum inhibitory concentration for Gram-positive antibacterial activity by using standard MIC broth assay method; 8-16; format: functional
Bacteria [5] = test: Minimum inhibitory concentration for Gram-positive antibacterial activity by using standard MIC broth assay method; 0.25-1; format: functional
Bacteria [6] = test: Minimum inhibitory concentration for Gram-positive antibacterial activity by using standard MIC broth assay method; 0.5-2; format: functional
[7] = Ratio of NRII-NRI to KinA-Spo0F IC50s
[8] = (§1) Inhibition of NRII and/or NRI phosphorylation in Escherichia coli
Bacteria [9] = test: Minimum inhibitory concentration for Gram-positive antibacterial activity by using standard MIC broth assay method; 0.5-1; format: functional
Bacteria [10] = test: Minimum inhibitory concentration for Gram-positive antibacterial activity by using standard MIC broth assay method; 0.25-0.5; format: functional
Bacteria [11] = test: Minimum inhibitory concentration for Gram-positive antibacterial activity by using standard MIC broth assay method; 0.1-0.5; format: functional
[12] = as §1; format: functional

Row | IC50 [2] [µM] | Ratio [7] | SMILES | also measured
1 | > 500 | – | Oc1ccc(Cl)cc1-c1n[nH]c(-c2ccc(Cl)c(Cl)c2)n1 | MIC (Bacteria [3]): > 32 µg/mL
2 | 91 | – | NS(=O)(=O)c1ccc(O)c(-c2n[nH]c(-c3ccc(Cl)c(Cl)c3)n2)c1 | MIC (Bacteria [4]): 8 µg/mL (≈ 20.8 µM)
3 | 44 | – | Oc1c(-c2n[nH]c(-c3ccc(Cl)c(Cl)c3)n2)cc(C(F)(F)F)cc1C(F)(F)F | MIC (Bacteria [5]): 0.25 µg/mL (≈ 0.565 µM)
4 | 87 | 1.5 | Oc1c(Cl)cc(Cl)cc1-c1n[nH]c(-c2cccc(Cl)c2)n1 | MIC (Bacteria [9]): 0.5 µg/mL (≈ 1.47 µM); pIC50 [8]: 3.89
5 | 24 | – | Oc1c(Br)cc(Br)cc1-c1n[nH]c(-c2ccc(Cl)c(Cl)c2)n1 | MIC (Bacteria [10]): 0.25 µg/mL (≈ 0.539 µM)
6 | > 500 | – | COc1ccc(-c2n[nH]c(-c3cc(Cl)cc(Cl)c3O)n2)cc1 | –
7 | 100 | 0.75 | Oc1c(Br)cc(Br)cc1-c1n[nH]c(-c2ccc(Oc3ccccc3)cc2)n1 | pIC50 [8]: 4.12
8 | 37 | – | O=C(Nc1ccc(Cl)c(Cl)c1)c1cc(Cl)cc(Cl)c1O [3,3',4',5-TETRACHLOROSALICYLANILIDE] | MIC (Bacteria [11]): 0.1 µg/mL (≈ 0.285 µM)

The next lines start with the compound.

Row | SMILES | IC50 [2] [µM] | Ratio [7] | also measured
9 | Cc1ccc(-c2n[nH]c(-c3cc(Cl)cc(Cl)c3O)n2)cc1C | > 500 | – | MIC (Bacteria [1]): 4 µg/mL (≈ 12 µM)
10 | CC(C)(C)c1cc(-c2n[nH]c(-c3ccc(Cl)c(Cl)c3)n2)c(O)c(C(C)(C)C)c1 | > 500 | – | –
11 | Oc1c(Cl)cc(Cl)cc1-c1n[nH]c(-c2ccc(Cl)cc2)n1 | 80 | 0.71 | MIC (Bacteria [6]): 0.5 µg/mL (≈ 1.47 µM); pIC50 [8]: 4.24
12 | Oc1c(Cl)cc(Cl)cc1-c1n[nH]c(-c2ccc(Cl)c(C(F)(F)F)c2)n1 | 16 | 4.1 | MIC (Bacteria [5]): 0.25 µg/mL (≈ 0.612 µM); pIC50 [8]: 4.19
13 | CC(C)c1ccc(-c2n[nH]c(-c3cc(Cl)cc(Cl)c3O)n2)cc1 | > 500 | – | –
14 | Oc1c(Cl)cccc1-c1n[nH]c(-c2ccc(Cl)c(Cl)c2)n1 | > 500 | – | –
15 | Oc1c(Cl)cc(Cl)cc1-c1n[nH]c(-c2ccccc2)n1 | 380 | – | –
16 | O=[N+]([O-])c1ccc(-c2nc(-c3cc(Cl)cc(Cl)c3O)n[nH]2)cc1 | > 500 | – | –
17 | Oc1c(Cl)cc(Cl)cc1-c1n[nH]c(-c2ccc(Cl)c(Cl)c2)n1 | 67 | 2.2 | pIC50 [8]: 3.82; MIC (Bacteria [10]): 0.25 µg/mL (≈ 0.667 µM)
18 | O=[N+]([O-])c1cc(-c2n[nH]c(-c3ccc(Cl)c(Cl)c3)n2)c(O)c([N+](=O)[O-])c1 | 8 | 3.5 | MIC (Bacteria [3]): > 64 µg/mL; pIC50 [12]: 4.55
